Results from ChEMBL document CHEMBL3044710, “Nematodetoxic aurovertin-type metabolites from a root-knot nematode parasitic fungus Pochonia chlamydosporia” (2010).
≈ marks a conversion by molar mass, not a printed value. Calls of active or inactive are those of the source. The calls are words filed in the database; no cut-off is given here.

How the values were obtained:
Meloidogyne incognita [1] = test: Nematodexic activity against eggs of Meloidogyne incognita (root-knot nematode) assessed as mean corrected egg hatching inhibition rate at 25 to 400 ug/ml at 28 degC measured after 7 to 13 days by normal binocular microscopic analysis; type: functional
Panagrellus redivivus [2] = test: Nematodexic activity against mixed juvenile and adult stages of Panagrellus redivivus assessed as mean corrected mortality rate at 28 degC measured after 48 hr by normal binocular microscopic analysis; type: functional
Panagrellus redivivus [3] = test: Nematodexic activity against mixed juvenile and adult stages of Panagrellus redivivus assessed as disruption of internal structure, vacuole formation and residual empty somatocysts in the dead worm at 28 degC measured after 48 hr by normal binocular microscopic analysis; type: functional, organism-based
Meloidogyne incognita [4] = test: Nematodexic activity against Meloidogyne incognita (root-knot nematode) assessed as mortality at 500 mg/l after 96 hr; type: functional

COc1cc(=O)oc(/C=C/C=C/C=C/[C@@H]2O[C@@]3(C)C(C)O[C@](C)([C@H]2O)[C@@H]3O)c1C (some centres undefined)
inhibition (INH) (Meloidogyne incognita [1]): <=5%

CCC1O[C@]2(C)[C@@H](O)[C@H](/C=C/C=C/C=C/c3oc(=O)cc(OC)c3C)O[C@]1(C)[C@H]2O (some centres undefined)
inhibition (INH) (Meloidogyne incognita [1]): <=5%

COc1cc(=O)oc(/C=C/C=C/C=C/C2OC3(C)C([C@H](C)O)OC(C)(C2O)C3OC(C)=O)c1C (some centres undefined) [AUROVERTIN D]
LC50 (Panagrellus redivivus [2]): 41.7 µg/mL (≈ 87.5 µM)
inhibition (INH) (Meloidogyne incognita [1]): <=5%
Activity (Panagrellus redivivus [3]): Active

COc1cc(=O)oc(/C=C/C=C/C=C/C2OC3(C)C([C@H](C)O)OC(C)(C2O)C3O)c1C (some centres undefined) [AUROVERTIN F]
LC50 (Panagrellus redivivus [2]): 88.6 µg/mL (≈ 204 µM)
inhibition (INH) (Meloidogyne incognita [1]): <=5%
Activity (Panagrellus redivivus [3]): Active

C/C=C/[C@@H]1OC(=O)C=C[C@@H]1O [PHOMALACTONE]
mortality at 500 µg/mL (Meloidogyne incognita [4]): 84%
